From the NIST ThermoML archive (doi:10.1021/je700281z)
± gives the expanded uncertainty stated by the source.

Assay: xn = mol fraction of the nth substance listed
Conditions: 101 kPa, Liquid

CCCCOCCOCCO [3,6-dioxa-1-decanol] + CCCCO
Conditions	mass density [kg/m3]
293.15 K, x1 = 0.1013	834.791 ± 0.82
293.15 K, x1 = 0.1505	845.543 ± 0.81
293.15 K, x1 = 0.2017	855.876 ± 0.79
293.15 K, x1 = 0.2529	865.45 ± 0.78
293.15 K, x1 = 0.3005	873.704 ± 0.78
293.15 K, x1 = 0.3516	881.978 ± 0.78
293.15 K, x1 = 0.4507	896.487 ± 0.79
293.15 K, x1 = 0.5005	903.11 ± 0.81
293.15 K, x1 = 0.5506	909.377 ± 0.82
293.15 K, x1 = 0.6036	915.608 ± 0.84
293.15 K, x1 = 0.6493	920.67 ± 0.86
293.15 K, x1 = 0.7	925.984 ± 0.89
293.15 K, x1 = 0.7292	928.912 ± 0.91
293.15 K, x1 = 0.749	930.843 ± 0.92
293.15 K, x1 = 0.8483	939.967 ± 0.99
298.15 K, x1 = 0.0521	819.296 ± 0.86
298.15 K, x1 = 0.15	841.555 ± 0.82
298.15 K, x1 = 0.2022	852.057 ± 0.8
298.15 K, x1 = 0.2535	861.607 ± 0.8
298.15 K, x1 = 0.301	869.838 ± 0.79
298.15 K, x1 = 0.3487	877.538 ± 0.79
298.15 K, x1 = 0.4028	885.726 ± 0.8
298.15 K, x1 = 0.4536	892.882 ± 0.8
298.15 K, x1 = 0.6017	911.346 ± 0.85
298.15 K, x1 = 0.6501	916.714 ± 0.87
298.15 K, x1 = 0.7003	921.969 ± 0.9
298.15 K, x1 = 0.7486	926.743 ± 0.93
298.15 K, x1 = 0.7986	931.465 ± 0.96
298.15 K, x1 = 0.8491	935.973 ± 1
303.15 K, x1 = 0.0462	813.931 ± 0.87
303.15 K, x1 = 0.0516	815.259 ± 0.87
303.15 K, x1 = 0.1015	827.004 ± 0.85
303.15 K, x1 = 0.1522	837.999 ± 0.83
303.15 K, x1 = 0.2002	847.641 ± 0.82
303.15 K, x1 = 0.2536	857.548 ± 0.81
303.15 K, x1 = 0.3008	865.688 ± 0.8
303.15 K, x1 = 0.3513	873.826 ± 0.8
303.15 K, x1 = 0.3997	881.12 ± 0.81
303.15 K, x1 = 0.4513	888.394 ± 0.81
303.15 K, x1 = 0.5047	895.427 ± 0.83
303.15 K, x1 = 0.552	901.283 ± 0.84
303.15 K, x1 = 0.6546	912.925 ± 0.89
303.15 K, x1 = 0.6992	917.561 ± 0.91
303.15 K, x1 = 0.7074	918.41 ± 0.91
303.15 K, x1 = 0.7476	922.362 ± 0.94
303.15 K, x1 = 0.7976	927.051 ± 0.97
303.15 K, x1 = 0.7988	927.176 ± 0.97
303.15 K, x1 = 0.8959	935.611 ± 1

COCCOCCO [2-(2-methoxyethoxy)ethanol] + CCCCO
Conditions	mass density [kg/m3]
293.15 K, x1 = 0.0535	823.612 ± 0.85
293.15 K, x1 = 0.1527	848.542 ± 0.8
293.15 K, x1 = 0.2	860.004 ± 0.78
293.15 K, x1 = 0.2003	860.091 ± 0.78
293.15 K, x1 = 0.2518	872.235 ± 0.77
293.15 K, x1 = 0.3009	883.531 ± 0.75
293.15 K, x1 = 0.3032	884.084 ± 0.75
293.15 K, x1 = 0.3546	895.622 ± 0.74
293.15 K, x1 = 0.399	905.367 ± 0.74
293.15 K, x1 = 0.4007	905.744 ± 0.74
293.15 K, x1 = 0.4522	916.775 ± 0.74
293.15 K, x1 = 0.5012	927.038 ± 0.74
293.15 K, x1 = 0.5527	937.589 ± 0.75
293.15 K, x1 = 0.5978	946.625 ± 0.76
293.15 K, x1 = 0.6019	947.427 ± 0.77
293.15 K, x1 = 0.6526	957.368 ± 0.78
293.15 K, x1 = 0.6961	965.704 ± 0.8
293.15 K, x1 = 0.7503	975.858 ± 0.83
293.15 K, x1 = 0.7973	984.5 ± 0.86
293.15 K, x1 = 0.8492	993.819 ± 0.89
293.15 K, x1 = 0.8978	1002.37 ± 0.94
293.15 K, x1 = 0.947	1010.88 ± 1
298.15 K, x1 = 0.053	819.639 ± 0.86
298.15 K, x1 = 0.1019	832.026 ± 0.83
298.15 K, x1 = 0.1502	843.949 ± 0.81
298.15 K, x1 = 0.2028	856.65 ± 0.79
298.15 K, x1 = 0.2523	868.3 ± 0.78
298.15 K, x1 = 0.3497	890.395 ± 0.76
298.15 K, x1 = 0.454	912.946 ± 0.75
298.15 K, x1 = 0.5507	932.958 ± 0.76
298.15 K, x1 = 0.6013	943.061 ± 0.78
298.15 K, x1 = 0.648	952.194 ± 0.79
298.15 K, x1 = 0.6994	962.043 ± 0.81
298.15 K, x1 = 0.7465	970.86 ± 0.83
298.15 K, x1 = 0.7505	971.594 ± 0.84
298.15 K, x1 = 0.7968	980.073 ± 0.86
298.15 K, x1 = 0.7977	980.251 ± 0.86
298.15 K, x1 = 0.8465	988.996 ± 0.9
298.15 K, x1 = 0.8486	989.382 ± 0.9
298.15 K, x1 = 0.8987	998.178 ± 0.94
298.15 K, x1 = 0.899	998.234 ± 0.94
298.15 K, x1 = 0.9481	1006.69 ± 1
298.15 K, x1 = 0.9483	1006.72 ± 1
303.15 K, x1 = 0.0508	815.157 ± 0.87
303.15 K, x1 = 0.1014	827.941 ± 0.84
303.15 K, x1 = 0.1471	839.22 ± 0.82
303.15 K, x1 = 0.2015	852.303 ± 0.8
303.15 K, x1 = 0.2528	864.365 ± 0.79
303.15 K, x1 = 0.3048	876.239 ± 0.78
303.15 K, x1 = 0.3503	886.405 ± 0.77
303.15 K, x1 = 0.3555	887.558 ± 0.77
303.15 K, x1 = 0.4005	897.361 ± 0.76
303.15 K, x1 = 0.4503	908.007 ± 0.76
303.15 K, x1 = 0.4981	917.96 ± 0.77
303.15 K, x1 = 0.5518	928.933 ± 0.77
303.15 K, x1 = 0.5996	938.439 ± 0.79
303.15 K, x1 = 0.648	947.877 ± 0.8
303.15 K, x1 = 0.6991	957.619 ± 0.82
303.15 K, x1 = 0.7497	967.071 ± 0.85
303.15 K, x1 = 0.7954	975.414 ± 0.87
303.15 K, x1 = 0.8491	985.035 ± 0.91
303.15 K, x1 = 0.8964	993.318 ± 0.94
303.15 K, x1 = 0.9513	1002.75 ± 1
